Reference: patent US20240245079A1, “METHOD FOR MANUFACTURING HEATED FOOD” (Nisshin Seifun Welna Inc., priority 2021, published 2024)

Assay: Method for measuring solubility of metal salt
Conditions: 100 g water at pH 7, 20° C., shaken 1 hour
Description: In a flask are placed 100 g of water at pH 7 and 2 g of a metal salt being tested. The flask is tightly closed and shaken in a thermostat at 20° C. for 1 hour. The contents of the flask are filtered to collect the undissolved metal salt, which is dried and weighed. The weight (g) of the undissolved metal salt is subtracted from the original weight (2 g) to obtain the solubility of the metal salt.

## [O]=[Mg] [Magnesium oxide]
  Solubility: 0.0086 g/100 g water
